Reference: patent US9957267B2, “Somatostatin modulators and uses thereof” (Crinetics Pharmaceuticals, Inc., priority 2015, dated 2018)

How the values were obtained:
Assay type in all cases: cell-based
SSTR5 = molecular target: T1, SSTR5 (Homo sapiens, UniProt P35346); assay: cAMP functional agonist assay, CHO cells expressing SSTR5; settings: CHO cells stably expressing SSTR5, cAMP
T1 construct: expressed in transfected cells
Procedure: (§1) Chinese hamster ovary (CHO) cells stably expressing one of the six human or rodent somatostatin receptor subtypes are grown to 85-100% confluence on standard tissue culture dishes in F12-Ham's growth media (Hyclone) with following additives: 10% donor calf serum (Hyclone), 200 U/mL penicillin (Hyclone), 200 μg/mL streptomycin (Hyclone), 20 mM HEPES (Hyclone), 200 μg/mL hygromycin Hyclone.
(§2) General overview: All SSTR subtypes are Gi coupled G-protein coupled receptors (GPCRs) that lead to decreases in intracellular cyclic AMP (cAMP) when activated by an agonist. Therefore, measurement of intracellular cAMP levels can be used to assess whether compounds of the invention are agonists of SSTR subtypes (John Kelly, Troy Stevens, W. Joseph Thompson, and Roland Seifert, Current Protocols in Pharmacology, 2005, 2.2.1-2.2). One example of an intracellular cAMP assay is described below.

SSTR4 = molecular target: T2, SSTR4 (Homo sapiens, UniProt P31391); assay: cAMP functional agonist assay, CHO cells expressing SSTR4; settings: CHO cells stably expressing SSTR4, cAMP; read-out: SSTR4 EC50
T2 construct: expressed in transfected cells
Procedure: as §1
(§3) General overview: All SSTR subtypes are Gi coupled G-protein coupled receptors (GPCRs) that lead to decreases in intracellular cyclic AMP (cAMP) when activated by an agonist. […] One example of an intracellular cAMP assay is described below.

[1] = molecular target: T3, human somatostatin receptor subtype 2a (Homo sapiens, UniProt P30874); assay: cAMP assay for SSTR2a agonists (HTRF cAMP kit, NKH-477 stimulated); settings: CHO cells stably expressing human SSTR2a, 1.6 μM NKH-477
T3 construct: expressed in transfected cells
Procedure: as §1, §2
Four days prior to the assay, 5000 Chinese hamster ovary (CHO) cells stably expressing the human somatostatin receptor subtype 2a are plated in each well of a 96-well tissue culture plate (Nest Biotech Cell, flat bottom with low evaporation tissue culture treated; Polystyrene; Non-Pyrogenic) in F12-Ham's media (100 μL/well) supplemented with 200 μg/mL of hygromycin. Incubate at 37 C, 5% CO2, 95% humidity for four days. The cells should reach full confluence. On the day of the assay, various dilutions of the compounds of the invention are prepared in assay buffer (HRTF cAMP kit, Cisbio) in the presence of 1.6 μM NKH-477 (a water-soluble forskolin derivative) and 50 μL of the dilutions are added to the cultured cells and incubated for 20 minutes at 37° C. […] 50 μL of lysis buffer (HRTF cAMP kit, Cisbio) is added to each well and incubated at room temperature for 30 minutes, after which 150 μL assay buffer is added to each well. In a 384-well plate (Grenier, 784-080), 10 μL of assay mixture is added to 10 μL of developing mixture, containing cAMP detection and visualization antibodies are added and the assay is allowed incubate for 1-24 hours at room temperature. The intracellular cAMP concentrations are then measured using a commercially available detection kit (for example, the cAMP HTRF kit, Cisbio). The measured intracellular cAMP concentrations are plotted vs. the concentration of the compounds of the invention and the EC50 of the compounds are calculated using standard methods.

SSTR1 = molecular target: T4, SSTR1 (Homo sapiens, UniProt P30872); assay: cAMP functional agonist assay, CHO cells expressing SSTR1; settings: CHO cells stably expressing SSTR1, cAMP; read-out: SSTR1 EC50
T4 construct: expressed in transfected cells
Procedure: as §1, §3

SSTR3 = SSTR3 (UniProt P32745); assay: cAMP functional agonist assay, CHO cells expressing SSTR3; settings: CHO cells stably expressing SSTR3, cAMP
Procedure: as §1, §2

T4 sequence (P30872 whole entry): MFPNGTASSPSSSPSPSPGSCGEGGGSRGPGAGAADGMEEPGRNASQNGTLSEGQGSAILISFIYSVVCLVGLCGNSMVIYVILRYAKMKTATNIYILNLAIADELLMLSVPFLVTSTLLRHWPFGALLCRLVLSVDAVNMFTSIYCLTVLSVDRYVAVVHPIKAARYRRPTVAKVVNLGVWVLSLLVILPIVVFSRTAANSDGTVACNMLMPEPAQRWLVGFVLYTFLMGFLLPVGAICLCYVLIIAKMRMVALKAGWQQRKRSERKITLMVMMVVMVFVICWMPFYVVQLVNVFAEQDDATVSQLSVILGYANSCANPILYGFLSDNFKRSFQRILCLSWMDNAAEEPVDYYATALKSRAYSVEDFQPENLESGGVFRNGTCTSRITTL
T3 sequence (P30874 whole entry): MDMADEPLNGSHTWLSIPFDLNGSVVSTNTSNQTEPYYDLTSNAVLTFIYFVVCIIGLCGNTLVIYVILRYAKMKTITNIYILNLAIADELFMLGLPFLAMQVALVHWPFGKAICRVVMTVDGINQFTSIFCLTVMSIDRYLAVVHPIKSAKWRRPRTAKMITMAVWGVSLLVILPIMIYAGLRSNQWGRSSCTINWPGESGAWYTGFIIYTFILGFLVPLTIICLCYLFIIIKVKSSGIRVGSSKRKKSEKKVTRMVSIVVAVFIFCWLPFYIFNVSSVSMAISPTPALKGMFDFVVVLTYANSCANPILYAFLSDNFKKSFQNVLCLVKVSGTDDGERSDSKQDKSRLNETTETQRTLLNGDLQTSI
T1 sequence (P35346 whole entry): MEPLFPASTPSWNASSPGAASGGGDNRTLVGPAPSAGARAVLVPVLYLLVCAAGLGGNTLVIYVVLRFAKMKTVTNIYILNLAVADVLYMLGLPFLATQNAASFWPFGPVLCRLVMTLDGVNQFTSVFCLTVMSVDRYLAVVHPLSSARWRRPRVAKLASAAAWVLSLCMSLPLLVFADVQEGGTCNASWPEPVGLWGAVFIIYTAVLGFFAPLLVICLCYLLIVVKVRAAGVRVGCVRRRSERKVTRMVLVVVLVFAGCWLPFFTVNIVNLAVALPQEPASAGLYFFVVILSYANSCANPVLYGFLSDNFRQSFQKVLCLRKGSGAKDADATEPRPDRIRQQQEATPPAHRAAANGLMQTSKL
Chain of SSTR3 (P32745 whole entry): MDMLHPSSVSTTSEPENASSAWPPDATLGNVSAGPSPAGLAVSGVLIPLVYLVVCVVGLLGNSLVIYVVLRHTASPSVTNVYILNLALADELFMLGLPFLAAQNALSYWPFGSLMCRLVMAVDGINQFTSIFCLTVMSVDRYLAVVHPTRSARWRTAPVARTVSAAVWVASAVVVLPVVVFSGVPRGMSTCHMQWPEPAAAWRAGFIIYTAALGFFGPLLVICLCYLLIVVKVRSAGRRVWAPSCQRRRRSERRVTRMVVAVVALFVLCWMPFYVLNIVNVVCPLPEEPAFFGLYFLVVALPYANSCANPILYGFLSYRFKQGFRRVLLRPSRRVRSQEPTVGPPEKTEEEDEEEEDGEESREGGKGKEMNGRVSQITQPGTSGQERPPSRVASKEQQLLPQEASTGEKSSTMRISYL
T2 sequence (P31391 whole entry): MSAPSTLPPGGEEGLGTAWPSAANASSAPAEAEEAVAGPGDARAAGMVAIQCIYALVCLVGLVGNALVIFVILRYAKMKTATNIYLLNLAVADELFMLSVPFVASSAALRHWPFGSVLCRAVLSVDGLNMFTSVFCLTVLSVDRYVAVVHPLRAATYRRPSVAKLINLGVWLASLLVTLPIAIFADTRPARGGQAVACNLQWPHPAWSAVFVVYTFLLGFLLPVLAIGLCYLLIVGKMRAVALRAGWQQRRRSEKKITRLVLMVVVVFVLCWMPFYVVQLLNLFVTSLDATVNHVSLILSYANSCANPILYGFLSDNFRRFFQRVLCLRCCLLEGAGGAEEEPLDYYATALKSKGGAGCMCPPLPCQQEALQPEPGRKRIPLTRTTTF

Row | Structure (SMILES) | EC50 (SSTR5) [nM] | EC50 (SSTR4) [nM] | EC50 [1] [nM] | EC50 (SSTR1) [nM] | EC50 (SSTR3) [nM]
1 | CC[C@H](N)CN(C)Cc1c(-c2cc(C)cc(C)c2)cnc2ncn(-c3cc(O)cc(F)c3)c(=O)c12 [Compound A-62, 5-({[(2S)-2-aminobutyl](methyl)amino}methyl)-6-(3,5-dimethylphenyl)-3-(3-fluoro-5-hydroxyphenyl)-3H,4H-pyrido[2,3-d]pyrimidin-4-one] | 100 to 10000 | < 100 | < 100 | 100 to 10000 | < 100
2 | Cc1cc(C)cc(-c2cnc3ncn(-c4cc(O)cc(F)c4)c(=O)c3c2CN(C)C[C@@H]2CCCCN2)c1 [Compound A-27, 6-(3,5-dimethylphenyl)-3-(3-fluoro-5-hydroxyphenyl)-5-({methyl[(2S)-piperidin-2-ylmethyl]amino}methyl)-3H,4H-pyrido[2,3-d]pyrimidin-4-one] | 100 to 10000 | < 100 | < 100 | 100 to 10000 | < 100
3 | Cc1cc(Cl)cc(-c2cnc3ncn(-c4cc(O)cc(Cl)c4)c(=O)c3c2CN(C)C[C@@H]2CCCN2)c1 [Compound A-49, 3-(3-chloro-5-hydroxyphenyl)-6-(3-chloro-5-methylphenyl)-5-({methyl[(2S)-pyrrolidin-2-ylmethyl]amino}methyl)-3H,4H-pyrido[2,3-d]pyrimidin-4-one] | > 10000 | < 100 | < 100 | 100 to 10000 | < 100
4 | Cc1cc(Cl)cc(-c2cnc3ncn(-c4cccc(O)c4)c(=O)c3c2CN(C)C[C@@H]2CCCCN2)c1 [Compound A-29, 6-(3-chloro-5-methylphenyl)-3-(3-hydroxyphenyl)-5-({methyl[(2S)-piperidin-2-ylmethyl]amino}methyl)-3H,4H-pyrido[2,3-d]pyrimidin-4-one] |  | < 100 | < 100 | 100 to 10000 | < 100
5 | CCCN(CCN)Cc1c(-c2cc(C)cc(C)c2)cnc2ncn(-c3cccc(O)c3)c(=O)c12 [Compound A-4, 5-{[(2-aminoethyl)(propyl)amino]methyl}-6-(3,5-dimethylphenyl)-3-(3-hydroxyphenyl)-3H,4H-pyrido[2,3-d]pyrimidin-4-one] | 100 to 10000 | < 100 | < 100 | 100 to 10000 | 100 to 10000
6 | Cc1cc(C)c(F)c(-c2cnc3ncn(-c4cccc(O)c4)c(=O)c3c2CN(C)CC2CCCCN2)c1 (stereo not shown) [Compound A-70, 6-(2-Fluoro-3,5-dimethyl-phenyl)-3-(3-hydroxy-phenyl)-5-[(methyl-piperidin-2-ylmethyl-amino)-methyl]-3H-pyrido[2,3-d]pyrimidin-4-one] | 100 to 10000 | < 100 | < 100 | 100 to 10000 | < 100
7 | CN(Cc1c(-c2cccc(Cl)c2)cnc2ncn(-c3cccc(O)c3)c(=O)c12)CC1CCCCN1 (stereo not shown) [Compound A-24, 6-(3-chlorophenyl)-3-(3-hydroxyphenyl)-5-{[methyl(piperidin-2-ylmethyl)amino]methyl}-3H,4H-pyrido[2,3-d]pyrimidin-4-one] |  | < 100 | < 100 | 100 to 10000 | < 100
8 | Cc1cccc(-c2cnc3ncn(-c4cccc(O)c4)c(=O)c3c2CN(C)CC2CCCCN2)c1 (stereo not shown) [Compound A-21, 3-(3-hydroxyphenyl)-5-{[methyl(piperidin-2-ylmethyl)amino]methyl}-6-(3-methylphenyl)-3H,4H-pyrido[2,3-d]pyrimidin-4-one] | > 10000 | < 100 | < 100 | 100 to 10000 | < 100
9 | CCOC(=O)CNCCN(CC)Cc1c(-c2cc(C)cc(C)c2)cnc2ncn(-c3cccc(O)c3)c(=O)c12 [Compound A-68] | > 10000 | 100 to 10000 | 100 to 10000 | > 10000 | > 10000
10 | Cc1cc(F)cc(-c2cnc3ncn(-c4cccc(O)c4)c(=O)c3c2CN(C)CC2CCCCN2)c1 (stereo not shown) [Compound A-25, 6-(3-fluoro-5-methylphenyl)-3-(3-hydroxyphenyl)-5-{[methyl(piperidin-2-ylmethyl)amino]methyl}-3H,4H-pyrido[2,3-d]pyrimidin-4-one] |  | < 100 | < 100 | 100 to 10000 | < 100
11 | CCc1nc2ncc(-c3cc(C)cc(Cl)c3)c(CN(C)C[C@@H]3CCCN3)c2c(=O)n1-c1cccc(O)c1 [Compound A-57, 6-(3-chloro-5-methylphenyl)-2-ethyl-3-(3-hydroxyphenyl)-5-({methyl[(2S)-pyrrolidin-2-ylmethyl]amino}methyl)-3H,4H-pyrido[2,3-d]pyrimidin-4-one] | 100 to 10000 | < 100 | < 100 | 100 to 10000 | < 100
12 | Cc1cc(Cl)cc(-c2cnc3ncn(-c4cc(F)cc(C(N)=O)c4)c(=O)c3c2CN(C)C[C@H]2CCCN2)c1 [Compound A-51, 3-[6-(3-chloro-5-methylphenyl)-5-({methyl[(2R)-pyrrolidin-2-ylmethyl]amino}methyl)-4-oxo-3H,4H-pyrido[2,3-d]pyrimidin-3-yl]-5-fluorobenzamide] | > 10000 | < 100 | < 100 | > 10000 | < 100
13 | CN(Cc1c(-c2cccc(CO)c2)cnc2ncn(-c3cccc(O)c3)c(=O)c12)C[C@@H]1CCCN1 [Compound A-34, 6-[3-(hydroxymethyl)phenyl]-3-(3-hydroxyphenyl)-5-({methyl[(2S)-pyrrolidin-2-ylmethyl]amino}methyl)-3H,4H-pyrido[2,3-d]pyrimidin-4-one] | > 10000 | < 100 | < 100 | > 10000 | 100 to 10000
14 | CCN(CCN)Cc1c(-c2cc(C)cc(Cl)c2)cnc2ncn(-c3cc(O)cc(F)c3)c(=O)c12 [Compound A-3, 5-(((2-aminoethyl)(ethyl)amino)methyl)-6-(3-chloro-5-methylphenyl)-3-(3-fluoro-5-hydroxyphenyl)pyrido[2,3-d]pyrimidin-4(3H)-one] |  | < 100 | < 100 | > 10000 | 100 to 10000
15 | CC[C@H](N)CN(C)Cc1c(-c2cc(C)cc(Cl)c2)cnc2ncn(-c3cc(O)cc(F)c3)c(=O)c12 [Compound A-66, 5-({[(2S)-2-aminobutyl](methyl)amino}methyl)-6-(3-chloro-5-methylphenyl)-3-(3-fluoro-5-hydroxyphenyl)-3H,4H-pyrido[2,3-d]pyrimidin-4-one] |  | < 100 | < 100 | > 10000 | 100 to 10000
16 | CCN(Cc1c(-c2cc(C)cc(C)c2)cnc2ncn(-c3cccc(O)c3)c(=O)c12)C[C@H](C)N [Compound A-9, 5-({[(2S)-2-aminopropyl](ethyl)amino}methyl)-6-(3,5-dimethylphenyl)-3-(3-hydroxyphenyl)-3H,4H-pyrido[2,3-d]pyrimidin-4-one] |  | < 100 | < 100 | 100 to 10000 | < 100
17 | Cc1c(F)cccc1-c1cnc2ncn(-c3cccc(O)c3)c(=O)c2c1CN(C)CC1CCCCN1 (stereo not shown) [Compound A-26, 6-(3-fluoro-2-methylphenyl)-3-(3-hydroxyphenyl)-5-{[methyl(piperidin-2-ylmethyl)amino]methyl}-3H,4H-pyrido[2,3-d]pyrimidin-4-one] | 100 to 10000 | < 100 | < 100 |  | < 100
18 | Cc1cc(Cl)cc(-c2cnc3nc(C)n(-c4cc(F)cc(C#N)c4)c(=O)c3c2CN(C)C[C@@H]2CCCN2)c1 [Compound A-60, 3-[6-(3-chloro-5-methylphenyl)-2-methyl-5-({methyl[(2S)-pyrrolidin-2-ylmethyl]amino}methyl)-4-oxo-3H,4H-pyrido[2,3-d]pyrimidin-3-yl]-5-fluorobenzonitrile] |  | < 100 | < 100 | 100 to 10000 | < 100
